The record followed here is ChEMBL document CHEMBL5465560, “Selectivity Literature for EUbOPEN Chemogenomic Library” (2024).

The structures appear in SMILES notation.

Experiment [1] deals with Calcium/calmodulin-dependent protein kinase type II subunit alpha (Homo sapiens, UniProt Q9UQM7). The note with it: at 10 µM.
The target of experiment [2] is Serine/threonine-protein kinase OSR1 (Homo sapiens) (UniProt O95747). Nature of the experiment: Selectivity interaction (Ambit KINOMEscan and KiNATiv profiling in Jurkat cells) EUB0000090b OXSR1. It counts as cell-based. Particulars: at 1 µM.
Chain of Serine/threonine-protein kinase OSR1 (Homo sapiens) (O95747 2-527 limits assumed): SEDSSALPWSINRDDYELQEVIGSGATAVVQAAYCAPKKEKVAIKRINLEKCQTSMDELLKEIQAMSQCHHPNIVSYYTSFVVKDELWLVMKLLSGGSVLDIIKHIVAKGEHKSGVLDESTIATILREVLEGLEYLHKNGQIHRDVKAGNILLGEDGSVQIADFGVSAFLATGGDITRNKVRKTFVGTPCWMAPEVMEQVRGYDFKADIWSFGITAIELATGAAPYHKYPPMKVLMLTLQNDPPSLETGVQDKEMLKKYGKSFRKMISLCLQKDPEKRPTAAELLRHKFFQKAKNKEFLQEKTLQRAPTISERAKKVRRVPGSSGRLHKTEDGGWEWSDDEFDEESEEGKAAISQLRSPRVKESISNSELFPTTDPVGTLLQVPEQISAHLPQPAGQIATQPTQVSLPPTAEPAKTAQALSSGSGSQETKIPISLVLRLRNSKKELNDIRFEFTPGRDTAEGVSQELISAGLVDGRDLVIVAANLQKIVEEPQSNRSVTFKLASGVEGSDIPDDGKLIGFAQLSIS
The target of experiment [3] is T1, Dual specificity mitogen-activated protein kinase kinase 7 (Homo sapiens) (UniProt O14733).
T1 sequence (whole entry): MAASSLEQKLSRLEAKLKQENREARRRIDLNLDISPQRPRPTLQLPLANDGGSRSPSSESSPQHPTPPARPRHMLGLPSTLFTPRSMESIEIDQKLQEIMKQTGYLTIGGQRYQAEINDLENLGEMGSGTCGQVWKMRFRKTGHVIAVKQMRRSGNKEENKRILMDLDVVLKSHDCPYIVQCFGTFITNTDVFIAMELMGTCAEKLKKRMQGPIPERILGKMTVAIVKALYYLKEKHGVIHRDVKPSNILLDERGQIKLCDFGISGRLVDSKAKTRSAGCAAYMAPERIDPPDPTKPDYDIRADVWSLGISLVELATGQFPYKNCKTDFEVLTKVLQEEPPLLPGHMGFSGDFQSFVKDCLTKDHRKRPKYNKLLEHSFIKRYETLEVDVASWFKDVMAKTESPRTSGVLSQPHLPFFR
Kind of experiment: Selectivity interaction (KinomeScan (DiscoverX)) EUB0000092b MAP2K7. Particulars: at 10 µM.

Experiment [4] deals with Cyclin-dependent kinase 11B (Homo sapiens) (UniProt P21127). Kind of experiment: Selectivity interaction (KinomeScan (DiscoverX)) EUB0000655a CDK11B. The note with it: at 10 µM.
Chain of Cyclin-dependent kinase 11B (Homo sapiens) (P21127 whole entry): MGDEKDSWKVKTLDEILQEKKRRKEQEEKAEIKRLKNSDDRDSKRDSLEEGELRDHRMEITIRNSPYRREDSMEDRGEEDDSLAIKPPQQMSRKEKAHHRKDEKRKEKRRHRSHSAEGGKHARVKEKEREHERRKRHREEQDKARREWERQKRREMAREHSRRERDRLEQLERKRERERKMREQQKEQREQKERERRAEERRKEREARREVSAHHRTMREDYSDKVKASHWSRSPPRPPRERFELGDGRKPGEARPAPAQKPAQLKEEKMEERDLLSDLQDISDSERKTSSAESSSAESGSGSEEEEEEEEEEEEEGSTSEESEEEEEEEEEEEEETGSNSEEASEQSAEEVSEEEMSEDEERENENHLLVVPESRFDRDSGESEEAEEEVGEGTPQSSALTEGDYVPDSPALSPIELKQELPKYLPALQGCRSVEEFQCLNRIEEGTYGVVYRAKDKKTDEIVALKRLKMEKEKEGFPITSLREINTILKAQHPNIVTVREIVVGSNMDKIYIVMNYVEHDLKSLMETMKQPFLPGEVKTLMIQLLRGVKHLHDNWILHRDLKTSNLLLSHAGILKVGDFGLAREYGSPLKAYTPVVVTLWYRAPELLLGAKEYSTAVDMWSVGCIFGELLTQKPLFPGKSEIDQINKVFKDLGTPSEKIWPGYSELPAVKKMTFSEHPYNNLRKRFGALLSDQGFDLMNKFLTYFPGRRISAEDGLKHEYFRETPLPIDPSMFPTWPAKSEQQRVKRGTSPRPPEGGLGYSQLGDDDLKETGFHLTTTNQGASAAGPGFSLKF
Experiment [5] has as its target Tyrosine-protein kinase Yes (Homo sapiens) (UniProt P07947). Kind of experiment: Selectivity interaction (KinomeScan (DiscoverX)) EUB0000045b YES1.
The target in experiment [6] is Homeodomain-interacting protein kinase 2 (Homo sapiens, UniProt Q9H2X6). Kind of experiment: Selectivity interaction (KinomeScan (DiscoverX)) EUB0000607a HIPK2. Particulars: at 10 µM.
Chain of Homeodomain-interacting protein kinase 2 (Q9H2X6 whole entry, looked up): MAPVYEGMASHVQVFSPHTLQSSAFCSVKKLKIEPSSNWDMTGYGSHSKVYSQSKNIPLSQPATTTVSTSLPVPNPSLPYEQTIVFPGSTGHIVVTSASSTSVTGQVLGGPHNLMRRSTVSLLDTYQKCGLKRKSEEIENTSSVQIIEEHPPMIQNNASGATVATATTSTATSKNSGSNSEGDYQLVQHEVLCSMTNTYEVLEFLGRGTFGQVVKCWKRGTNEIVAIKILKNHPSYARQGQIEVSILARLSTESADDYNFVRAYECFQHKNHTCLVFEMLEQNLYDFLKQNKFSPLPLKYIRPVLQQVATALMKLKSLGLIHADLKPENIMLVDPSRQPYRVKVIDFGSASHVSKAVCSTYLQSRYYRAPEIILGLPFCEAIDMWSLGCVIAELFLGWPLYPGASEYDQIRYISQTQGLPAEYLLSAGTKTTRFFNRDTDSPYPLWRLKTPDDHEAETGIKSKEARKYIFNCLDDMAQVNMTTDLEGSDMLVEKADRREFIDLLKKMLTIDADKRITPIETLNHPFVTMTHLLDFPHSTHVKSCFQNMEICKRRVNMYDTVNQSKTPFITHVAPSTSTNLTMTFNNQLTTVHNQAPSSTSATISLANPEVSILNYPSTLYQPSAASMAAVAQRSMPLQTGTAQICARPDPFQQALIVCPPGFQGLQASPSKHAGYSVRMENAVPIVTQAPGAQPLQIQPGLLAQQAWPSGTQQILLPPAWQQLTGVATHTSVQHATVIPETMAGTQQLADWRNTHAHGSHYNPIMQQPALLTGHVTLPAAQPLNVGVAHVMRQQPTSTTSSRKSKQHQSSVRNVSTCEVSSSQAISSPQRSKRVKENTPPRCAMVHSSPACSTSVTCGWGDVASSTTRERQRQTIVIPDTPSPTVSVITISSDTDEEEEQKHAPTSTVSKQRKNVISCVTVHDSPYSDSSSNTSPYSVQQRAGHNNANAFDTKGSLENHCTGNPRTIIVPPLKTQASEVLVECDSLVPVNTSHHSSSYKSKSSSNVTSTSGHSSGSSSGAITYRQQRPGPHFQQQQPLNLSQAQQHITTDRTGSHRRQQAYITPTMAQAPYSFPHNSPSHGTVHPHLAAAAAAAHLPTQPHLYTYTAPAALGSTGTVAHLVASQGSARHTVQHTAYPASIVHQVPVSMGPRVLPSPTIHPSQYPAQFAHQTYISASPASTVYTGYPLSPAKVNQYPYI
For experiment [7], the target named is Serine/threonine-protein kinase SMG1 (Homo sapiens) (UniProt Q96Q15). Nature of the experiment: Selectivity interaction (ActivX KiNativ screen (kinase selectivity in THP-1 cell lysates)) EUB0000639a SMG1. It counts as subcellular. Particulars: lysate, at 0.2 µM.
For experiment [8], the target named is T2, Serine/threonine-protein kinase MAK (Homo sapiens) (UniProt P20794).
T2 sequence (whole entry): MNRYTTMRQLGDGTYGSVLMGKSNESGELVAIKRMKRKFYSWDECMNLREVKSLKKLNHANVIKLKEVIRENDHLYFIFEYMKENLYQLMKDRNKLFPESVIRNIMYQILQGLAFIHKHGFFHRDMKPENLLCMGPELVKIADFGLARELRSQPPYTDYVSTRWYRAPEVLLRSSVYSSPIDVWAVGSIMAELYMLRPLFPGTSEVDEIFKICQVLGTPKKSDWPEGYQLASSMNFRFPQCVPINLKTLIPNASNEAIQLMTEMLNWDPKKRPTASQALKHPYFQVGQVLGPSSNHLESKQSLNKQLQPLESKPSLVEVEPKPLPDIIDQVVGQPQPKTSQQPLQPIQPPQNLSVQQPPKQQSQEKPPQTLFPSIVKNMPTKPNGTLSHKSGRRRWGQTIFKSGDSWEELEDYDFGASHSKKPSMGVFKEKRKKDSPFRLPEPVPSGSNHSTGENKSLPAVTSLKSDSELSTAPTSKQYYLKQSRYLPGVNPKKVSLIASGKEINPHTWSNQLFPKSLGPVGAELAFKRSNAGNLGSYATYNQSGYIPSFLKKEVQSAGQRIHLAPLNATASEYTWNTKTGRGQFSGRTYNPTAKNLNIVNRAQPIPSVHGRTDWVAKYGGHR
Nature of the experiment: Selectivity interaction (KinomeScan (DiscoverX)) EUB0000595a MAK. The note with it: at 10 µM.

Experiment [9] deals with T3, Interleukin-1 receptor-associated kinase 4 (Homo sapiens) (UniProt Q9NWZ3).
T3 sequence (whole entry): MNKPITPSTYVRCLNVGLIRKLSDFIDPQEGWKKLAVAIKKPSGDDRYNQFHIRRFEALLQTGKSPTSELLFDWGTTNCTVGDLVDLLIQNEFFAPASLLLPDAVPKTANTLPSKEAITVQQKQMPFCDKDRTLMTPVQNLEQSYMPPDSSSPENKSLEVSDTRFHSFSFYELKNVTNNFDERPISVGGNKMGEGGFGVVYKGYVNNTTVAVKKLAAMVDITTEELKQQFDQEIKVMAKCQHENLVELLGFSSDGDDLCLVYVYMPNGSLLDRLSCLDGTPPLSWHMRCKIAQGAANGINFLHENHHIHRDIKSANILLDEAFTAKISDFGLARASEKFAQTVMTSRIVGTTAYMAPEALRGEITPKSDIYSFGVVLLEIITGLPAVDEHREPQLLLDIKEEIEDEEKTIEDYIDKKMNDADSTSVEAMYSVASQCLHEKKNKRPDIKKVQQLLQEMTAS
Nature of the experiment: Selectivity interaction (ActivX KiNativ screen (ex vivo kinase selectivity in human PBMCs)) EUB0001619a IRAK4. Format: cell-based. The note with it: PBMC, at 1 µM.

Experiment [10] has as its target Interferon-induced, double-stranded RNA-activated protein kinase (Homo sapiens) (UniProt P19525). Kind of experiment: Selectivity interaction (ActivX KiNativ screen (ex vivo kinase selectivity in human PBMCs)) EUB0001619a EIF2AK2. It counts as cell-based. The note with it: PBMC, at 1 µM.
In a further experiment the target is Insulin receptor (Homo sapiens, UniProt P06213). Kind of experiment: Selectivity interaction (KinomeScan (DiscoverX)) EUB0000618a INSR. Particulars: at 10 µM.
Chain of Insulin receptor (P06213 28-758 limits assumed): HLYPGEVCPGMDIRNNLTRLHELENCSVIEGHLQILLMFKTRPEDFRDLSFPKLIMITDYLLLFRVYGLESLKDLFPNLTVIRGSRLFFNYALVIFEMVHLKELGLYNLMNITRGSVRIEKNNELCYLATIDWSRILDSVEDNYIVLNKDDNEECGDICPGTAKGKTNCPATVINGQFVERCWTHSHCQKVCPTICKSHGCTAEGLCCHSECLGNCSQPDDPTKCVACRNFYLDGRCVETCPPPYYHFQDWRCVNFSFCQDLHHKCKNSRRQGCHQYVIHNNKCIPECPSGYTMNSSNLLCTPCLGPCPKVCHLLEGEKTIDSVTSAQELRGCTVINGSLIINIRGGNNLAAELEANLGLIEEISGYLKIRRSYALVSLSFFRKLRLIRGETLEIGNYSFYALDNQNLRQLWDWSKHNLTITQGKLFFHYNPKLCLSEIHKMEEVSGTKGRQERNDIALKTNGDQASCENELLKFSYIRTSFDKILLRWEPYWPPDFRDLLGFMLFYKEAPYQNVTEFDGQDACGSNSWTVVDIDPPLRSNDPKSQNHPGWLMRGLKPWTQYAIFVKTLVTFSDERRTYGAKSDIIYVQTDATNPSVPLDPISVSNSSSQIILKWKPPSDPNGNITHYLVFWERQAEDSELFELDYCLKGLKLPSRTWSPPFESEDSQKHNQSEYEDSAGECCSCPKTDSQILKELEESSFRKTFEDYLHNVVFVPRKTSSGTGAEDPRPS
Chain of Insulin receptor (P06213 763-1382 limits assumed): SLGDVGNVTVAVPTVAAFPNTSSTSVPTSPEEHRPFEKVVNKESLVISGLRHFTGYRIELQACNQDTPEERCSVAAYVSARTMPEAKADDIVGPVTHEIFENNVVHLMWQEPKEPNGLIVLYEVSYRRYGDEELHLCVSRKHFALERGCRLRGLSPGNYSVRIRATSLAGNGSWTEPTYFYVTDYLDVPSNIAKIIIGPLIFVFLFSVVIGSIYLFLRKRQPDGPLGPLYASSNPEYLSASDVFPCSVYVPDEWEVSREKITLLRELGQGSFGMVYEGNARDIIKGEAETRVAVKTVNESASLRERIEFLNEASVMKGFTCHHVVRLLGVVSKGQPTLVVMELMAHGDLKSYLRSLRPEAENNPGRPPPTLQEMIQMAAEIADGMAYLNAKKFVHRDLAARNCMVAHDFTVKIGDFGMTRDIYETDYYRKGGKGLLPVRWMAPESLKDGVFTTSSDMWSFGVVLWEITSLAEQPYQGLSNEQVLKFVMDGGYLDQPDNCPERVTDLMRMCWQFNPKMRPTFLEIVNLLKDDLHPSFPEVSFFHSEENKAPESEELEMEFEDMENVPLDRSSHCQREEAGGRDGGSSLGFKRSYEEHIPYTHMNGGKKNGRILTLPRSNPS

Chain of Tyrosine-protein kinase Yes (Homo sapiens) (P07947 2-543 limits assumed): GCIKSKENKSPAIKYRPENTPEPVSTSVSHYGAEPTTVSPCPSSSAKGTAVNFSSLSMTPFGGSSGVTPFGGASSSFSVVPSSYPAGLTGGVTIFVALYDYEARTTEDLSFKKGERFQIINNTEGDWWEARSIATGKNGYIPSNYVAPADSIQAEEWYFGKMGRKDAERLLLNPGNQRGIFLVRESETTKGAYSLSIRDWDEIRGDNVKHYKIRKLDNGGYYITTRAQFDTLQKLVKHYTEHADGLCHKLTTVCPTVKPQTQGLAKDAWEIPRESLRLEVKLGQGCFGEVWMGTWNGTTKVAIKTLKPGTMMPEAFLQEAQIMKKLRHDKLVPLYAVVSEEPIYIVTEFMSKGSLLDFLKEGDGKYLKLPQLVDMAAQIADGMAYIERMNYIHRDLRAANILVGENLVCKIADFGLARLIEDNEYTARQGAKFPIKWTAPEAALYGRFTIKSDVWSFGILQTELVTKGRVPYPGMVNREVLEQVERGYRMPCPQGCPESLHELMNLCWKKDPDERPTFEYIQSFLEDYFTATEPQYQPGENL
Chain of Interferon-induced, double-stranded RNA-activated protein kinase (Homo sapiens) (P19525 whole entry): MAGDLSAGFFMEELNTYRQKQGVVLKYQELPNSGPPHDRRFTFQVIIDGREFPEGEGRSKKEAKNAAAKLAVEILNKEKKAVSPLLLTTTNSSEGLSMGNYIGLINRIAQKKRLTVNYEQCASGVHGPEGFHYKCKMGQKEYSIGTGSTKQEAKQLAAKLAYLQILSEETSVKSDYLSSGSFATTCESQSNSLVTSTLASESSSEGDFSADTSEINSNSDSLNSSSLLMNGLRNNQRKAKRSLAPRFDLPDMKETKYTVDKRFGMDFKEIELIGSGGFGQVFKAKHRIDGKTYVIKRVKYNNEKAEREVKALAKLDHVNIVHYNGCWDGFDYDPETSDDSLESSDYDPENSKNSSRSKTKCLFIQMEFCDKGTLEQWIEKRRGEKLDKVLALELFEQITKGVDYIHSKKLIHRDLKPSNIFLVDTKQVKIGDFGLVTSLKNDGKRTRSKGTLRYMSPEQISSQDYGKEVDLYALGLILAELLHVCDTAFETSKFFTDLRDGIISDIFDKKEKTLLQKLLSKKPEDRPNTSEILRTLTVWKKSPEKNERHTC

In the case of `Cc1cc([C@@H](C)Nc2ccccc2C(=O)O)c2nc(N3CCOCC3)cc(=O)n2c1` [AZD-6482], the % of control in [1] worked out at 75%. `CN(C)C/C=C/C(=O)Nc1ccc(C(=O)N2CCCC(Nc3ncc(Cl)c(-c4c[nH]c5ccccc45)n3)C2)cc1` (configuration not stated) returned a % of control in experiment [2] of 87%. In [3], `CCC(=O)N1CCN(c2ccc(-n3c(=O)ccc4cnc5ccc(-c6cnc7ccccc7c6)cc5c43)cc2C(F)(F)F)CC1` gave a % of control of 100%.

`CN(C)CCOc1ccc(-c2nc(-c3ccncc3)c(-c3ccc4c(c3)CC/C4=N\O)[nH]2)cc1` gave a % of control in [4] of 100%. Consider `C=CC(=O)Nc1cc(-n2c(=O)ccc3cnc4ccc(-c5ccc(NS(C)(=O)=O)cc5)cc4c32)ccc1C`, for which the results for the % of control in experiment [5] (at 1 µM) and in experiment [5] (at 10 µM) were 74% and 100%, respectively. For `CNC(=O)Nc1ccc(-c2nc(N3CC4CCC(C3)O4)c3cnn(C4CCC5(CC4)OCCO5)c3n2)cc1`, the % of control in experiment [6] is 100%. `CC[C@@H]1[C@H](F)C(=O)N[C@@H]1COc1nccc2cc(C(N)=O)c(OC)cc12` [ZIMLOVISERTIB]: the % of inhibition in experiment [7] amounted to 0%. In experiment [8], `COCC(=O)NC/C=C/c1ccc2ncnc(Nc3ccc(Oc4ccc(C)nc4)c(C)c3)c2c1` [CP-724714] had a % of control of 90%. As to `N#Cc1cccc(-c2c[nH]c3ncnc(N4CCOCC4)c23)c1`, the % of inhibition in experiment [9] stood at 11%; in experiment [10], 12%. At Insulin receptor, `O[C@H]1CC[C@H](Nc2ncc3nc(Nc4c(F)cc(F)cc4F)n([C@H]4CCOC4)c3n2)CC1` returned a % of control of 98%.
